The source of these data is patent US11214803B2, “Modulators of YAP1 expression” (Ionis Pharmaceuticals, Inc., priority 2019, dated 2022).

Strand notation (5' to 3'): a small letter for the sugar, then the base; units joined by * are phosphorothioate-linked, units joined directly phosphodiester-linked; [ ] holds rarer units or linkages, { } end groups; capitals alone tell only the bases. k = constrained ethyl (cEt); [5mC] = 5-methylcytosine; d = 2'-deoxy (DNA)

What is called IC50 is the midpoint of a concentration-inhibition curve.

The series concerns Yap1 mRNA. The experiment in a line: Dose-dependent inhibition of human Yap1 in A-431 cells (Example 7, 10,000 cells per well, RTS36584). The format is cell-based. As to conditions: free uptake. In outline:
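Yap1 mRNA was expressed as percent of untreated control after normalization to total RNA (RIBOGREEN), and IC50 was derived by log/linear linear regression. The read-out used primer-probe set RTS36584 roughly 48 hours after free-uptake dosing of oligonucleotides into A-431 cells (10,000 cells/well).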

The mark [1] stands for this setting: Table 60, 15.6 nM, A-431 cells 10,000 cells per well, 48 hours.
The mark [2] stands for this setting: Table 60, 62.5 nM, A-431 cells 10,000 cells per well, 48 hours.
The mark [3] stands for this setting: Table 60, 4000.00 nM, A-431 cells 10,000 cells per well, 48 hours.
The mark [4] stands for this setting: Table 60, A-431 cells 10,000 cells per well.
The mark [5] stands for this setting: Table 59, 15.6 nM, A-431 cells 10,000 cells per well, 48 hours.
Setting [6] is: Table 59, 62.5 nM, A-431 cells 10,000 cells per well, 48 hours.
Where [7] appears, read: Table 59, 4000.00 nM, A-431 cells 10,000 cells per well, 48 hours.
Where [8] appears, read: Table 59, A-431 cells 10,000 cells per well.
Setting [9] is: 15.6 nM, A-431 cells, 10,000 cells per well, approximately 48 hours.
Setting [10] is: 62.5 nM, A-431 cells, 10,000 cells per well, approximately 48 hours.
[11] abbreviates: 4000.00 nM, A-431 cells, 10,000 cells per well, approximately 48 hours.
Where [12] appears, read: A-431 cells, approximately 48 hours, linear regression on log/linear plot.
Where [13] appears, read: Table 61, 15.6 nM, A-431 cells 10,000 cells per well, 48 hours.
Where [14] appears, read: Table 61, 62.5 nM, A-431 cells 10,000 cells per well, 48 hours.
Where [15] appears, read: Table 61, 4000.00 nM, A-431 cells 10,000 cells per well, 48 hours.
The mark [16] stands for this setting: Table 61, A-431 cells 10,000 cells per well.
Setting [17] is: Table 58, 15.6 nM, A-431 cells 10,000 cells per well, 48 hours.
Where [18] appears, read: Table 58, 62.5 nM, A-431 cells 10,000 cells per well, 48 hours.
Where [19] appears, read: Table 58, 4000.00 nM, A-431 cells 10,000 cells per well, 48 hours.
[20] abbreviates: Table 58, A-431 cells 10,000 cells per well.

Consider “958523 (kT*kT*k[5mC]*d[5mC]*dA*dA*dT*d[5mC]*dG*dA*dG*dA*d[5mC]*kT*kT*kA; antisense) [compound 958523]”, for which the “Yap1 mRNA, % UTC” value under setting [1] was 86 % UTC; the “Yap1 mRNA, % UTC” value under setting [2] worked out at 64 % UTC; the “Yap1 mRNA, % UTC” value under setting [3] is 12 % UTC. This substance also gave a half-inhibitory concentration (IC50) under setting [4] of 100 nM.

Consider “958563 (kA*kG*k[5mC]*dT*dT*dT*dT*dG*d[5mC]*d[5mC]*dA*dG*dG*kA*kG*kA; antisense) [compound 958563]”, for which the “Yap1 mRNA, % UTC” value worked out at 94 % UTC under setting [5], 54 % UTC under setting [6] and 10 % UTC under setting [7]. The IC50 under setting [8] was found to be 100 nM.

In the case of “958623 (kT*kT*kG*dA*dT*dA*dT*dT*d[5mC]*d[5mC]*dG*d[5mC]*dA*kT*kT*kG; antisense) [compound 958623]”, the “Yap1 mRNA, % UTC” value is, setting by setting: under setting [5], 100 % UTC; under setting [6], 62 % UTC; under setting [7], 10 % UTC. The substance also registered an IC50 under setting [8] of 100 nM.

For “958600 (kG*kT*kA*dG*dA*dT*d[5mC]*dT*dA*dA*dG*dA*dA*kG*k[5mC]*k[5mC]; antisense) [compound 958600]”, the “Yap1 mRNA, % UTC” value is given as 69 % UTC under setting [9], 44 % UTC under setting [10] and 14 % UTC under setting [11]. For the same substance, it took 50 nM to reach half-maximal inhibition under setting [12] (IC50).

In the case of “958555 (kG*k[5mC]*kT*dT*dA*dT*dA*dT*dT*dG*dA*dA*dG*kA*kG*kT; antisense) [compound 958555]”, the “Yap1 mRNA, % UTC” value is reported as 99 % UTC under setting [9], 73 % UTC under setting [10] and 13 % UTC under setting [11]. Under setting [12], this substance gave an IC50 of 200 nM.

For the substance “958474 (kG*kT*kG*dT*d[5mC]*dT*d[5mC]*d[5mC]*dT*dT*dA*dG*dA*kT*k[5mC]*k[5mC]; antisense) [compound 958474]”, the “Yap1 mRNA, % UTC” value is on record as 63 % UTC under setting [13], 37 % UTC under setting [14] and 11 % UTC under setting [15]. Under setting [16], it took 30 nM to reach half-maximal inhibition (IC50).

“958734 (kA*k[5mC]*kA*d[5mC]*dA*dT*dA*dG*dA*dG*d[5mC]*dT*dA*kA*kG*kG; antisense) [compound 958734]”: the “Yap1 mRNA, % UTC” value by setting is: under setting [9], 87 % UTC; under setting [10], 65 % UTC; under setting [11], 15 % UTC. The same substance yielded an IC50 under setting [12] of 100 nM.

Turning to “958541 (kG*kT*kA*dT*dT*d[5mC]*dT*dA*dT*d[5mC]*d[5mC]*dA*dG*kG*kG*kT; antisense) [compound 958541]”, the “Yap1 mRNA, % UTC” value runs as follows: (Table 57, 15.6 nM, A-431 cells 10,000 cells per well, 48 hours) 81 % UTC; (Table 57, 62.5 nM, A-431 cells 10,000 cells per well, 48 hours) 51 % UTC; (Table 57, 4000.00 nM, A-431 cells 10,000 cells per well, 48 hours) 9 % UTC. In addition, where the note is “Table 57, A-431 cells 10,000 cells per well”, the IC50 is 100 nM.

As to “958496 (k[5mC]*k[5mC]*kT*dT*dA*dT*dA*dA*dG*d[5mC]*dT*d[5mC]*d[5mC]*kT*kA*kA; antisense) [compound 958496]”, the “Yap1 mRNA, % UTC” value stood at 86 % UTC (Table 56, 15.6 nM, A-431 cells 10,000 cells per well, 48 hours); 53 % UTC (Table 56, 62.5 nM, A-431 cells 10,000 cells per well, 48 hours); 9 % UTC (Table 56, 4000.00 nM, A-431 cells 10,000 cells per well, 48 hours). The substance also returned an IC50 (Table 56, A-431 cells 10,000 cells per well) of 90 nM.

“958527 (kG*kT*kA*dA*dG*dT*dA*dA*dG*dA*dA*d[5mC]*dA*kA*kT*k[5mC]; antisense) [compound 958527]”: the “Yap1 mRNA, % UTC” value by setting is: under setting [17], 89 % UTC; under setting [18], 74 % UTC; under setting [19], 13 % UTC. This substance had an IC50 under setting [20] of 100 nM.

Take “958549 (kT*kG*kT*dA*dG*dA*d[5mC]*dA*d[5mC]*dA*dT*dA*d[5mC]*kT*k[5mC]*kT; antisense) [compound 958549]”: the “Yap1 mRNA, % UTC” value runs as follows: under setting [9], 98 % UTC; under setting [10], 78 % UTC; under setting [11], 28 % UTC. The same substance registered an IC50 under setting [12] of 300 nM.

Consider “958568 (kT*kA*kT*dG*dA*dG*dT*dG*dA*dT*d[5mC]*dA*dA*k[5mC]*k[5mC]*kT; antisense) [compound 958568]”, for which the “Yap1 mRNA, % UTC” value is given as 88 % UTC under setting [1], 65 % UTC under setting [2] and 21 % UTC under setting [3]. For the same substance, the IC50 under setting [4] amounted to 100 nM.

“958668 (kG*kT*kG*dA*dT*d[5mC]*dT*dG*dT*dG*dA*dG*dA*kG*kG*kT; antisense) [compound 958668]”: the “Yap1 mRNA, % UTC” value is, setting by setting: under setting [5], 81 % UTC; under setting [6], 38 % UTC; under setting [7], 5 % UTC. 100 nM corresponded to half-maximal inhibition under setting [8] (IC50).

With “958758 (k[5mC]*kT*kA*dT*dT*d[5mC]*dA*dG*dT*dG*dA*dT*d[5mC]*kT*kG*k[5mC]; antisense) [compound 958758]”, the “Yap1 mRNA, % UTC” value by setting is: under setting [5], 83 % UTC; under setting [6], 66 % UTC; under setting [7], 12 % UTC. Under setting [8], this substance displayed an IC50 of 100 nM.

As to “958545 (kA*k[5mC]*kT*d[5mC]*dT*dA*dG*dT*dT*dA*d[5mC]*dA*dT*k[5mC]*kA*kT; antisense) [compound 958545]”, the “Yap1 mRNA, % UTC” value came to 75 % UTC under setting [9], 50 % UTC under setting [10] and 8 % UTC under setting [11]. For the same substance, the IC50 under setting [12] was 100 nM.

In the case of “958763 (k[5mC]*kA*k[5mC]*dA*dA*dT*dA*d[5mC]*dA*dA*dG*dA*dT*kG*k[5mC]*kA; antisense) [compound 958763]”, the “Yap1 mRNA, % UTC” value by setting is: under setting [5], 98 % UTC; under setting [6], 60 % UTC; under setting [7], 8 % UTC. Besides, the IC50 under setting [8] is 100 nM.

For the substance “958543 (kA*k[5mC]*k[5mC]*dT*dT*dA*dT*dA*dG*dT*dA*dT*dT*k[5mC]*kT*kA; antisense) [compound 958543]”, the “Yap1 mRNA, % UTC” value came to 84 % UTC under setting [1], 63 % UTC under setting [2] and 18 % UTC under setting [3]. In addition, the IC50 under setting [4] was determined as 100 nM.

With “958819 (kT*kG*k[5mC]*dT*dT*d[5mC]*dA*dA*d[5mC]*dA*dT*dT*dG*kT*kT*k[5mC]; antisense) [compound 958819]”, the “Yap1 mRNA, % UTC” value reads like this: under setting [9], 79 % UTC; under setting [10], 63 % UTC; under setting [11], 19 % UTC. The same substance displayed an IC50 under setting [12] of 100 nM.

As to “958508 (kG*kA*kG*dA*dG*d[5mC]*dA*dG*dA*dT*dA*dA*dT*k[5mC]*kG*kA; antisense) [compound 958508]”, the “Yap1 mRNA, % UTC” value reads like this: under setting [1], 65 % UTC; under setting [2], 64 % UTC; under setting [3], 13 % UTC. Besides, the IC50 under setting [4] came out at 100 nM.

On to “958807 (kT*k[5mC]*kA*dT*dT*dG*dT*dA*dG*dT*d[5mC]*dT*dG*kT*k[5mC]*kT; antisense) [compound 958807]”, for which the “Yap1 mRNA, % UTC” value under setting [17] is recorded as 92 % UTC; the “Yap1 mRNA, % UTC” value under setting [18] stood at 65 % UTC; the “Yap1 mRNA, % UTC” value under setting [19] is 10 % UTC. Besides, the midpoint of inhibition under setting [20], the IC50, lay at 100 nM.

Consider “958535 (kG*kG*kG*dT*d[5mC]*dA*dA*dT*dT*dT*dT*d[5mC]*dA*kG*k[5mC]*kA; antisense) [compound 958535]”, for which the “Yap1 mRNA, % UTC” value reads like this: under setting [9], 98 % UTC; under setting [10], 64 % UTC; under setting [11], 19 % UTC. Further, the IC50 under setting [12] came out at 200 nM.

For “958567 (kT*k[5mC]*kA*dA*d[5mC]*d[5mC]*dT*dA*dT*dG*dA*dA*d[5mC]*kT*kA*kT; antisense) [compound 958567]”, the “Yap1 mRNA, % UTC” value was found to be 99 % UTC under setting [17], 80 % UTC under setting [18] and 16 % UTC under setting [19]. In addition, the IC50 under setting [20] was determined as 200 nM.

For the substance “958798 (kT*kG*k[5mC]*dA*dG*dT*dA*dT*dA*dA*dT*dA*dT*k[5mC]*k[5mC]*kT; antisense) [compound 958798]”, the “Yap1 mRNA, % UTC” value came to 101 % UTC under setting [5], 61 % UTC under setting [6] and 12 % UTC under setting [7]. Under setting [8], this substance registered an IC50 of 100 nM.

With “958644 (kA*kT*kG*dA*dT*d[5mC]*dA*dA*dA*d[5mC]*d[5mC]*dT*dT*kT*kT*k[5mC]; antisense) [compound 958644]”, the “Yap1 mRNA, % UTC” value under setting [13] stood at 97 % UTC; the “Yap1 mRNA, % UTC” value under setting [14] was determined as 85 % UTC; the “Yap1 mRNA, % UTC” value under setting [15] amounted to 24 % UTC. The same substance had an IC50 under setting [16] of 300 nM.

Regarding “958625 (kT*kG*k[5mC]*dT*dG*dG*dG*dA*dT*dT*dG*dA*dT*kA*kT*kT; antisense) [compound 958625]”, the “Yap1 mRNA, % UTC” value by setting is: under setting [9], 86 % UTC; under setting [10], 59 % UTC; under setting [11], 17 % UTC. The substance also displayed a half-maximal inhibitory concentration (IC50) under setting [12] of 100 nM.
